Reference: patent publication US7550613B2, “Compounds” (Pronova Biopharma Norge AS, priority 2005, dated 2009)
Where two headings read alike, the source gives them in different places.

How the values were obtained:
[1] = Body weight and food consumption during 2 weeks of diet intervention after 8 weeks of HF diet; assay type: in vivo, adipose prone mice of the C57BL/6J strain; settings: FIG. 10; last 2 weeks of experimental diets after 8 weeks HF diet; PRBs 1.5% of fat content, rosiglitazone 100 mg/KG diet
Description: The animals (n=8 in each group) were fed high fat diet (fat constituting 60% of total calories, the same diet as used in Block 5) for 8 weeks. Thereafter they were given the PRBs in a dose of 1.5% of the fat content of the diet for another two weeks. The rosiglitazone group was given an amount of 100 mg/KG diet. The control groups continued with either only high fat diet or standard chow.

PPARα receptor = target: T1, PPARα receptor (Rattus norvegicus, UniProt P37230); settings: rat liver cells (Pawar & Jump 2003); cited from earlier work
T1 construct: host or cells: rat liver cells
T1 sequence (P37230 1-468): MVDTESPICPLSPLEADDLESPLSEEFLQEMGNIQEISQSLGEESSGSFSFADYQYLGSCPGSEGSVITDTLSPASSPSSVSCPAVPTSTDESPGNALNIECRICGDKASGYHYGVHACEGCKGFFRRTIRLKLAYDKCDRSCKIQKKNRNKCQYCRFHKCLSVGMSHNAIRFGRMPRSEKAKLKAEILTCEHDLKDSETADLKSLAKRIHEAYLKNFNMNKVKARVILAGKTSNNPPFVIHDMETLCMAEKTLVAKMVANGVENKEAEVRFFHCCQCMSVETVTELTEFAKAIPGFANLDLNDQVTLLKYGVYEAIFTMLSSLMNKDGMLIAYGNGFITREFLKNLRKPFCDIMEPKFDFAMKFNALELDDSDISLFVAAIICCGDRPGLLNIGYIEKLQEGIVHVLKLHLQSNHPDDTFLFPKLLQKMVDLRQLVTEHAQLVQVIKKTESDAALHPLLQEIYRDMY

[2] = Vaagenes 1999; cited from earlier work
[3] = Effect of DHA derivatives in adipose prone mice during 4 months of dietary interventions (Example 5a); assay type: in vivo, male C57BL/6 mice; parameters: AUC: unit not given beside the values; settings: for Insulin: plasma
Description: All experiments were performed on male C57BL/6 mice, either a substrain C57BL/N (supplier: Charles River, Germany, n=160, experiments A-C, see below), or a substrain C57BL/6J (supplier: the Jackson laboratory, Bar Harbor, Me., USA, n=32, experiment D). Total numbers of animals used were higher (n=170 and 36, respectively), because of culling. In the latter case, animals were bred for several generations (<20) at the Institute of Physiology. At the beginning of the treatment, animals were 14-week-old and their body weight range was 23.6-27.1 g. One week before the study start, animals were sorted according to their body weight and assigned to subgroups (n=8) of similar mean body weight. This method allowed for culling of about 5-10% of animals showing the lowest and highest body weight, respectively. The animals eliminated from the study at this stage were sacrificed by cervical dislocation. Complete health check of mice was performed by the supplier Charles River and at the start of study serological tests were performed by ANLAB (Prague, Czech Republic). In addition, regular health checks were performed in the animal house in 3-mo-intervals using sentinel mice and serological examinations (ANLAB). In all the tests, the animals were free of specific pathogens.
• (i) Chow diet (ssniff R/M-H from SSNIFF Spezialdieten Gmbh, Soest, Germany; see also http://ssniff.de) with protein, fat and carbohydrate forming 33, 9, and 58 energy %, respectively • (ii) High-fat diet prepared in the laboratory (cHF diet) with protein, fat and carbohydrate forming 15, 59, and 26 energy %, respectively, and well characterized fatty acid composition (with most of the lipids coming from corn oil; see Ruzickova 2004) • (iii) cHF diets in which 0.15, 0.5, and 1.5% of fat (specifically the corn oil constituent) was replaced by various PRB-compounds, namely PRB1, PRB2, PRB5, PRB7, and PRB8, or by DHA. All these compounds were in the form of ethyl esters, provided by Pronova Biocare a.s. in sealed containers. Chemical composition of the PRB-compounds was unknown to the laboratory performing the experiments (Institute of Physiology, Academy of Sciences Prague, Czech Republic).
The study was based on 4 individual experiments. In each of the experiments, different PRB-compounds (or DHA, respectively) admixed to cHF diet in three different concentrations (0.15, 0.5, and 1.5% of the fat content) were tested. In each experiment, a subgroup of plain cHF diet-fed mice was included and served as a control. Mice were caged in groups of 4 and fed standard chow diet until 3 mo of age, when animals (n=8-13) were randomly assigned to the different test diets. After 2 mo on this new diet (at 5 mo of age), animals were fasted overnight and in the morning, intraperitoneal Glucose Tolerance Test (GTT) was performed. Animals were sacrificed after 4 months on the experimental diets, at 7 mo of age, and the end-point analysis were performed.

PPARγ = target: T2, PPARγ (Homo sapiens, UniProt P37231); assay: Affinity testing in transfected cells (release of luciferase); assay type: cell-based; settings: FIG. 8; 10 μM of PRBs
T2 construct: For full length PPAR transfection studies, each well received 5 μg reporter construct; expressed in transfected cells; host or cells: COS-1 cells
T2 sequence (P37231 1-505): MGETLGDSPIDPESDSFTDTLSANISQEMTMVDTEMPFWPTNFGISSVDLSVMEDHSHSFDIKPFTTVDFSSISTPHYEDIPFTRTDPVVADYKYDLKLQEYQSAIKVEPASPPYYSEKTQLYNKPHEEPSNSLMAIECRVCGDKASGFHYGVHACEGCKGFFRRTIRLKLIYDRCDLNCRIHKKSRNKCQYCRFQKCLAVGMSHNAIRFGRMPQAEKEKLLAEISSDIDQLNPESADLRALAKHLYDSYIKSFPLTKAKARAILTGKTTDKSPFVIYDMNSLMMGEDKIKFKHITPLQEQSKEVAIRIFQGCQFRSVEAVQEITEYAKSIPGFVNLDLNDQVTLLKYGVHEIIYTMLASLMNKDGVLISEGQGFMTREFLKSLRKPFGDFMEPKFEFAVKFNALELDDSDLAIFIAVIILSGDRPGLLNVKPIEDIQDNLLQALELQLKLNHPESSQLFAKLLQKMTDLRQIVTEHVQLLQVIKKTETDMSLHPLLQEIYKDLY
Description: Release of luciferase is correlated to transcription of genes. Binding of a ligand to a nuclear receptor such as PPARγ induces transcription of the respective gene thereby releasing luciferase. This technique therefore provides a measure of ligand affinity to the receptor as well as activation of the responsible gene.
Transient transfection of COS-1 cells was performed in 6-well plates as described by Graham and van der Eb (Graham). For full length PPAR transfection studies, each well received 5 μg reporter construct, 2.5 μg pSV-β-galactosidase as an internal control, 0.4 μg pSG5-PPARγ2. The cells were harvested after 72 h, and the luciferase activity was measured according to the protocol (Promega). The luciferase activity was normalised against β-galactosidase activity. The adipocytes were transfected at D11 of differentiation using 16 μl LipofectaminPlus reagent, 4 μl Lipofectamine (Life Technologies Inc.), 0.2 μg pSG5-PPARγ, and 100 ng pTK Renilla luciferase as control of transfection afficiency. […] The luciferase activities were measured as recommended by the manufacturer (Dual Luciferase assay, Promega). […]
Fatty acids (BRL or DHA) and PRBs (stock solutions) were solubilized to 0.1 M final concentration in DMSO. […] Luciferase activity was measured using a luminometer (TD-20/20 luminometer; Turner Designs, Sunnycvale, Calif.) and normalized against protein content.

PPARα = target: T3, PPARα (Homo sapiens, UniProt Q07869); settings: Larsen 2005; cited from earlier work
T3 sequence (Q07869 1-468): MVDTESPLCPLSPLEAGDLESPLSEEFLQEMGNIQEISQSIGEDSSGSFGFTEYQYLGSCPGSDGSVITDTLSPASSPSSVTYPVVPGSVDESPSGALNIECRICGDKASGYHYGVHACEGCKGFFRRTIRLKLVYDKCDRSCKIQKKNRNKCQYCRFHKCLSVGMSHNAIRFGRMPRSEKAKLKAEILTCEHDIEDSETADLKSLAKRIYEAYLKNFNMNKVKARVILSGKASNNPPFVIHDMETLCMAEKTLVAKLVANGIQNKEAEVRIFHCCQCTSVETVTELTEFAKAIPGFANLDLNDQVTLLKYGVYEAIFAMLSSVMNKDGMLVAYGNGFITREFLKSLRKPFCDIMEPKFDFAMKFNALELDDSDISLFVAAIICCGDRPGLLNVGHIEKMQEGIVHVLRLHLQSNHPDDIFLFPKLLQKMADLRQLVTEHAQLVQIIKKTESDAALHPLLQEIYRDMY

platelet aggregation [4] = settings: in vitro (Larsen 1998); cited from earlier work
platelet aggregation [5] = settings: in vivo (Willumsen 1998); cited from earlier work
[6] = Larsen 1998; cited from earlier work

In the case of `CC/C=C\C/C=C\C/C=C\C/C=C\C/C=C\C/C=C\CCC(=O)O` [DHA, (all-Z)-4,7,10,13,16,19-docosahexaenoic acid], the “change of body weight” value [1] is given as “completely stopped the weight gain and even led to reduction of body weight” and the “binding capacity to the PPARα receptor” value (PPARα receptor) is given as “highest binding capacity”.

For `CC/C=C\C/C=C\C/C=C\C/C=C\C/C=C\CCCC(=O)OCC` [EPA EE], the “plasma free fatty acid” value [2] is listed as “had no effect”.

In the case of `CC/C=C\C/C=C\C/C=C\C/C=C\C/C=C\CCCC(=O)O` [EPA, (all-Z)-5,8,11,14,17-eicosapentaenoic acid], the “binding capacity to the PPARα receptor” value (PPARα receptor) is given as “highest binding capacity”.

With `CC/C=C\C/C=C\C/C=C\C/C=C\C/C=C\C/C=C\CC(C)C(=O)OCC` (stereo not drawn) [PRB-1, α-methyl docosahexaenoic acid ethyl ester] the “Body wt. gain” value ([3]; 4 months, 0.15% concentration) was 22.9 ± 1.1 grams, the AUCglucose ([3]; intraperitoneal glucose tolerance test, 1.5% concentration) was 913 ± 68 mM × 180 min and the Insulin ([3]; 4 months, 0.15% concentration) was 3.50 ± 0.29 ng/mL. The Insulin ([3]; 4 months, 1.5% concentration) was 2.73 ± 0.33 ng/mL.

With `CC/C=C\C/C=C\C/C=C\C/C=C\C/C=C\C/C=C\CC(SC)C(=O)OCC` (stereo not drawn) [PRB-6, α-tiomethyl docosahexaenoic acid ethyl ester] the “release of luciferase from transfected cells” value (PPARγ) was “significantly higher release of luciferase”.

For `CC/C=C\C/C=C\C/C=C\C/C=C\C/C=C\C/C=C\CC(CC)(CC)C(=O)OCC` [PRB-8, α,α di-ethyl docosahexaenoic acid ethyl ester], the “body weight (BW)” value ([3]; 2 months intervention, 1.5%, controls 29.6±0.9) was 28.0±0.7 grams and the AUC ([3]; 2 months intervention, 1.5%, controls 1074±91) was 1031±104.

For `CC/C=C\C/C=C\C/C=C\C/C=C\C/C=C\CCC(CC)C(=O)O` (stereo not drawn) [α-ethyl EPA], the “activation of the nuclear receptor PPARα” value (PPARα) is listed as “equal strength as α-methyl EPA”.

In the case of `CC/C=C\C/C=C\C/C=C\C/C=C\C/C=C\CCC(C)C(=O)O` (stereo not drawn) [α-methyl EPA], the “inhibition of platelet aggregation” value (platelet aggregation [4]) is listed as “stronger inhibitor of platelet aggregation than EPA”, the “inhibition of platelet aggregation” value (platelet aggregation [5]) is listed as “stronger inhibitor of platelet aggregation than EPA” and the “incorporation into phospholipids and triglycerids” value [6] is listed as “is incorporated into phospholipids and triglycerids”.

For `CC/C=C\C/C=C\C/C=C\C/C=C\C/C=C\CC(C)CC(=O)O` (stereo not drawn) [β-methyl EPA], the “incorporation into phospholipids and triglycerids” value [6] is given as “is incorporated into phospholipids and triglycerids”.
